{"source": "patent US7205295B2", "about": "“Benzoxazin-3-ones and derivatives thereof as therapeutic agents” (Warner-Lambert Company LLC, priority 2002, dated 2007)", "data": [{"target": "T1, PI3Kγ (p101/p110γ protein) (Homo sapiens, UniProt P48736)", "T1 construct": "HA; made in house; host or cells: Spodoptera frugiperda (Sf9) cells, baculovirus co-infection", "T1 sequence (P48736 whole entry, species assumed)": "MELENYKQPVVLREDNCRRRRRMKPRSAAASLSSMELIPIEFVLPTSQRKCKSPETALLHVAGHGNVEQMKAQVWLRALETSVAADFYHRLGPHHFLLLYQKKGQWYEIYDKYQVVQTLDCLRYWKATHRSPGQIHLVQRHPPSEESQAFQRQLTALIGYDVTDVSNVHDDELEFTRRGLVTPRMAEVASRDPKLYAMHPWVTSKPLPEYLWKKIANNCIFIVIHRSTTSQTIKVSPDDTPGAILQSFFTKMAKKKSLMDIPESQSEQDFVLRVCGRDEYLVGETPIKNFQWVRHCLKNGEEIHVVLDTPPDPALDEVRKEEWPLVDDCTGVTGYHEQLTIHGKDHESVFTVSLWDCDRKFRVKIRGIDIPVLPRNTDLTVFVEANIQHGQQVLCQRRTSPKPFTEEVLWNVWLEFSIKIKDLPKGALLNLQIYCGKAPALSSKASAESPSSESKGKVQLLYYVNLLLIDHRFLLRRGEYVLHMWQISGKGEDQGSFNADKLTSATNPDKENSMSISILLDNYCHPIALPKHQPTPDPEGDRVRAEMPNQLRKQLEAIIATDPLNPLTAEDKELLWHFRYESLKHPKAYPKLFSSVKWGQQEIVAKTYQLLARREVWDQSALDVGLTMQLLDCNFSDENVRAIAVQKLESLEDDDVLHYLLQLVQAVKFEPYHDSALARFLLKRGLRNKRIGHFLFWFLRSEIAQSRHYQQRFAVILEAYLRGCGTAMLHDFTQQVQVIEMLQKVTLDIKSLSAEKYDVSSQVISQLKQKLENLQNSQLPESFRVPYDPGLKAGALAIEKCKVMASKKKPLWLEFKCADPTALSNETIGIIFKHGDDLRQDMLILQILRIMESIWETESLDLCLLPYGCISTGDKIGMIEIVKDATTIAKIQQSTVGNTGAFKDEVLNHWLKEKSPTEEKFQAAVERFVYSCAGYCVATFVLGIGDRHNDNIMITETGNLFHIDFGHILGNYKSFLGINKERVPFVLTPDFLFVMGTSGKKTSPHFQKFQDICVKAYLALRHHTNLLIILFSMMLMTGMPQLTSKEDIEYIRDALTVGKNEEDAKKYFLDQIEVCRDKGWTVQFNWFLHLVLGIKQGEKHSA", "T1 sequence (Q8WYR1 whole entry partner, species assumed)": "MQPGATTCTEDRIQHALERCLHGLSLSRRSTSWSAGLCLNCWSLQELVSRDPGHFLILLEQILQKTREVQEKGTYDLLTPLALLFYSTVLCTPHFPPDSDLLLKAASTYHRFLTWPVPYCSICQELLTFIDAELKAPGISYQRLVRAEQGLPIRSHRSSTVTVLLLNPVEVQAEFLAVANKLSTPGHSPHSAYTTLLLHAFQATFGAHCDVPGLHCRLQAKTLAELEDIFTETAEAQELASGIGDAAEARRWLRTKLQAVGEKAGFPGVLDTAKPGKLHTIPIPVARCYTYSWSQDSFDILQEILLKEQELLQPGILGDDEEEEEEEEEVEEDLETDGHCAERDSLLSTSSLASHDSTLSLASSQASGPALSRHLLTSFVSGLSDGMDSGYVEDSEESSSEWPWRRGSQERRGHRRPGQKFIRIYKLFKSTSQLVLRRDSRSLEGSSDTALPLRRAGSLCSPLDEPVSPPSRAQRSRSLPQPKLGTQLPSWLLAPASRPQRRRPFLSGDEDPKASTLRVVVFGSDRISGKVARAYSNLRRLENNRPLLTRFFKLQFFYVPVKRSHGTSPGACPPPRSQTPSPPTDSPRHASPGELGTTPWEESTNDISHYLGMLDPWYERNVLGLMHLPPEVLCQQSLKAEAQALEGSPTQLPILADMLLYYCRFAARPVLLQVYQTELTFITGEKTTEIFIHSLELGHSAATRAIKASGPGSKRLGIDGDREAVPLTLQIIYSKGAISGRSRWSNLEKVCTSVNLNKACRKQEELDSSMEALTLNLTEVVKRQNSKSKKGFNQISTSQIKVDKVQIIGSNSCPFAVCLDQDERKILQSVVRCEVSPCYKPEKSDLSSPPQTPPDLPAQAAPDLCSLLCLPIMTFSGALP", "experiment": "PI3Kγ In Vitro Kinase Assay", "assay_type": "biochemical", "settings": "purified recombinant p101/p110γ with G protein β1/γ2 subunits; 20 μM ATP, 25 μM PIP2; 20 minutes at room temperature", "in_short": "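Reactions ran 20 min at room temperature, pairing lipid micelles (25 μM PIP2, 300 μM PE, 0.02% Na-cholate, 10 mM MgCl2) with 20 μM ATP including [γ-32P]ATP. The enzyme was recombinant p101/p110γ (2.7 nM) with G protein β1/γ2 (57.7 nM). [32P]PIP3 product was stopped with H3PO4, filtered and scintillation counted.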", "units": {"IC50": "nM"}, "values": [{"smiles": "NC(=O)CN1C(=O)COc2ccc(C=C3SC(=S)NC3=O)cc21", "note": "[Example 141, 2-[3-Oxo-6-(4-oxo-2-thioxo-thiazolidin-5-ylidenemethyl)-2,3-dihydrobenzo[1,4]oxazin-4-yl]-acetamide]", "IC50": 860}, {"smiles": "O=C1NC(=S)SC1=Cc1ccc2c(c1)N(CC1CCCCC1)C(=O)CO2", "note": "[Example 143, 4-Cyclohexylmethyl-6-(4-oxo-2-thioxo-thiazolidin-5-ylidenemethyl)-4H-benzo[1,4]oxazin-3-one]", "IC50": 35}, {"smiles": "CC(C)CCN1C(=O)COc2ccc(C=C3SC(=S)NC3=O)cc21", "note": "[Example 144, 4-(3-Methyl-butyl)-6-(4-oxo-2-thioxo-thiazolidin-5-ylidenemethyl)-4H-benzo[1,4]oxazin-3-one]", "IC50": 24}, {"smiles": "O=C1NC(=S)SC1=Cc1ccc2c(c1)N(CC1CC1)C(=O)CO2", "note": "[Example 145, 4-Cyclopropylmethyl-6-(4-oxo-2-thioxo-thiazolidin-5-ylidenemethyl)-4H-benzo[1,4]oxazin-3-one]", "IC50": 26}, {"smiles": "O=C1NC(=S)SC1=Cc1ccc2c(c1)N(Cc1ccsc1)C(=O)CO2", "note": "[Example 146, 6-(4-Oxo-2-thioxo-thiazolidin-5-ylidenemethyl)-4-thiophen-3-ylmethyl-4H-benzo[1,4]oxazin-3-one]", "IC50": 30}, {"smiles": "O=C1NC(=S)SC1=Cc1ccc2c(c1)N(Cc1ccccn1)C(=O)CO2", "note": "[Example 147, 6-(4-Oxo-2-thioxo-thiazolidin-5-ylidenemethyl)-4-pyridin-2-ylmethyl-4H-benzo[1,4]oxazin-3-one]", "IC50": 49}, {"smiles": "O=C1NC(=S)SC1=Cc1ccc2c(c1)N(Cc1ccncc1)C(=O)CO2", "note": "[Example 148, 6-(4-Oxo-2-thioxo-thiazolidin-5-ylidenemethyl)-4-pyridin-4-ylmethyl-4H-benzo[1,4]oxazin-3-one]", "IC50": 61}, {"smiles": "N#Cc1cccc(CN2C(=O)COc3ccc(C=C4SC(=S)NC4=O)cc32)c1", "note": "[Example 149, 3-[3-Oxo-6-(4-oxo-2-thioxo-thiazolidin-5-ylidenemethyl)-2,3-dihydro-benzo[1,4]oxazin-4-ylmethyl]-benzonitrile]", "IC50": 21}, {"smiles": "Cc1cc(C)cc(CN2C(=O)COc3ccc(C=C4SC(=S)NC4=O)cc32)c1", "note": "[Example 150, 4-(3,5-Dimethyl-benzyl)-6-(4-oxo-2-thioxo-thiazolidin-5-ylidenemethyl)-4H-benzo[1,4]oxazin-3-one]", "IC50": 5}, {"smiles": "C[C@@H]1Oc2ccc(C=C3SC(=S)NC3=O)cc2N(Cc2ccc3ccccc3c2)C1=O", "note": "[Example 152, (S)-2-Methyl-4-naphthalen-2-ylmethyl-6-(4-oxo-2-thioxo-thiazolidin-5-ylidenemethyl)-4H-benzo[1,4]oxazin-3-one]", "IC50": 1030}, {"smiles": "COc1cc(C=C2SC(=S)NC2=O)cc2c1OCC(=O)N2Cc1ccccc1", "note": "[Example 153, 4-Benzyl-8-methoxy-6-(4-oxo-2-thioxo-thiazolidin-5-ylidenemethyl)-4H-benzo[1,4]oxazin-3-one]", "IC50": 96}, {"smiles": "Cc1cc(C=C2SC(=S)NC2=O)cc2c1OCC(=O)N2", "note": "[Example 154, 8-Methyl-6-(4-oxo-2-thioxo-thiazolidin-5-ylidenemethlyl)-4H-benzo[1,4]oxazin-3-one]", "IC50": 160}, {"smiles": "CC(C)(C)CCN1C(=O)COc2ccc(C=C3SC(=S)NC3=O)cc21", "note": "[Example 155, 4-(3,3-Dimethyl-butyl)-6-(4-oxo-2-thioxo-thiazolidin-5-ylidenemethyl)-4H-1,4-benzoxazin-3-one]", "IC50": 10}, {"smiles": "O=C1NC(=S)SC1=Cc1ccc2c(c1)N(Cc1cccc(OC(F)(F)F)c1)C(=O)CO2", "note": "[Example 156, 6-(4-Oxo-2-thioxo-thiazolidin-5-ylidenemethyl)-4-(3-trifluoromethoxy-benzyl)-4H-1,4-benzoxazin-3-one]", "IC50": 21}, {"smiles": "O=C1NC(=S)SC1=Cc1ccc2c(c1)N(Cc1cccc(C(F)(F)F)c1)C(=O)CO2", "note": "[Example 157, 6-(4-Oxo-2-thioxo-thiazolidin-5-ylidenemethyl)-4-(3-trifluoromethyl-benzyl)-4H-1,4-benzoxazin-3-one]", "IC50": 21}, {"smiles": "O=C1NC(=S)SC1=Cc1ccc2c(c1)N(Cc1ccc(C(F)(F)F)cc1)C(=O)CO2", "note": "[Example 158, 6-(4-Oxo-2-thioxo-thiazolidin-5-ylidenemethyl)-4-(4-trifluoromethyl-benzyl)-4H-1,4-benzoxazin-3-one]", "IC50": 28}, {"smiles": "O=C1NC(=S)SC1=Cc1ccc2c(c1)N(Cc1ccccc1-c1ccccc1)C(=O)CO2", "note": "[Example 159, 4-Biphenyl-2-ylmethyl-6-(4-oxo-2-thioxo-thiazolidin-5-ylidenemethyl)-4H-1,4-benzoxazin-3-one]", "IC50": 10}, {"smiles": "O=C1NC(=S)SC1=Cc1ccc2c(c1)N(CCCc1ccccc1)C(=O)CO2", "note": "[Example 160, 6-(4-Oxo-2-thioxo-thiazolidin-5-ylidenemethyl)-4-(3-phenyl-propyl)-4H-1,4-benzoxazin-3-one]", "IC50": 7}, {"smiles": "O=C1NC(=S)SC1=Cc1ccc2c(c1)N(CCCOc1ccccc1)C(=O)CO2", "note": "[Example 161, 6-(4-Oxo-2-thioxo-thiazolidin-5-ylidenemethyl)-4-(3-phenoxy-propyl)-4H-1,4-benzoxazin-3-one]", "IC50": 4}, {"smiles": "O=C1NC(=S)SC1=Cc1ccc2c(c1)N(Cc1ccc(C=Cc3ccccc3)cc1)C(=O)CO2", "note": "[Example 162, 6-(4-Oxo-2-thioxo-thiazolidin-5-ylidenemethyl)-4-(4-styryl-benzyl)-4H-1,4-benzoxazin-3-one]", "IC50": 53}, {"smiles": "O=C1NC(=S)SC1=Cc1ccc2c(c1)N(Cc1ccc(OCc3ccccc3)cc1)C(=O)CO2", "note": "[Example 163, 4-(4-Benzyloxy-benzyl)-6-(4-oxo-2-thioxo-thiazolidin-5-ylidenemethyl)-4H-1,4-benzoxazin-3-one]", "IC50": 30}, {"smiles": "O=C1NC(=S)SC1=Cc1ccc2c(c1)N(Cc1cccc(OC(F)F)c1)C(=O)CO2", "note": "[Example 164, 4-(3-Difluoromethoxy-benzyl)-6-(4-oxo-2-thioxo-thiazolidin-5-ylidenemethyl)-4H-1,4-benzoxazin-3-one]", "IC50": 13}, {"smiles": "O=C1NC(=S)SC1=Cc1ccc2c(c1)N(Cc1cccc(SC(F)(F)F)c1)C(=O)CO2", "note": "[Example 165, 6-(4-Oxo-2-thioxo-thiazolidin-5-ylidenemethyl)-4-(3-trifluoromethylsulfanyl-benzyl)-4H-1,4-benzoxazin-3-one]", "IC50": 15}, {"smiles": "O=C1NC(=S)SC1=Cc1ccc2c(c1)N(Cc1ccccc1OC(F)(F)F)C(=O)CO2", "note": "[Example 166, 6-(4-Oxo-2-thioxo-thiazolidin-5-ylidenemethyl)-4-(2-trifluoromethoxy-benzyl)-4H-1,4-benzoxazin-3-one]", "IC50": 20}, {"smiles": "COc1ccc(CN2C(=O)COc3ccc(C=C4SC(=S)NC4=O)cc32)cc1C(F)(F)F", "note": "[Example 167, 4-(4-Methoxy-3-trifluoromethyl-benzyl)-6-(4-oxo-2-thioxo-thiazolidin-5-ylidenemethyl)-4H-1,4-benzoxazin-3-one]", "IC50": 10}, {"smiles": "O=C1NC(=S)SC1=Cc1ccc2c(c1)N(Cc1ccc(SC(F)(F)F)cc1)C(=O)CO2", "note": "[Example 168, 6-(4-Oxo-2-thioxo-thiazolidin-5-ylidenemethyl)-4-(4-trifluoromethylsulfanyl-benzyl)-4H-1,4-benzoxazin-3-one]", "IC50": 12}, {"smiles": "O=C1NC(=S)SC1=Cc1ccc2c(c1)N(Cc1ccccc1SC(F)(F)F)C(=O)CO2", "note": "[Example 169, 6-(4-Oxo-2-thioxo-thiazolidin-5-ylidenemethyl)-4-(2-trifluoromethylsulfanyl-benzyl)-4H-1,4-benzoxazin-3-one]", "IC50": 8}, {"smiles": "O=C1NC(=S)SC1=Cc1ccc2c(c1)N(Cc1cccc(Oc3ccccc3)c1)C(=O)CO2", "note": "[Example 170, 6-(4-Oxo-2-thioxo-thiazolidin-5-ylidenemethyl)-4-(3-phenoxy-benzyl)-4H-1,4-benzoxazin-3-one]", "IC50": 9}, {"smiles": "O=C1NC(=S)SC1=Cc1ccc2c(c1)N(CC1CC3C=CC1C3)C(=O)CO2", "note": "(stereo not drawn) [Example 171, 4-Bicyclo[2.2.1]hept-5-en-2-ylmethyl-6-(4-oxo-2-thioxo-thiazolidin-5-ylidenemethyl)-4H-1,4-benzoxazin-3-one]", "IC50": 15}, {"smiles": "NC(=O)c1cccc(CN2C(=O)COc3ccc(C=C4SC(=S)NC4=O)cc32)c1", "note": "[Example 172, 3-[3-Oxo-6-(4-oxo-2-thioxo-thiazolidin-5-ylidenemethyl)-2,3-dihydro-1,4-benzoxazin-4-ylmethyl]-benzamide]", "IC50": 145}, {"smiles": "CC(CN1C(=O)COc2ccc(C=C3SC(=S)NC3=O)cc21)c1ccccc1", "note": "(stereo not drawn) [Example 173, 6-(4-Oxo-2-thioxo-thiazolidin-5-ylidenemethyl)-4-(2-phenyl-propyl)-4H-1,4-benzoxazin-3-one]", "IC50": 39}, {"smiles": "O=C1NC(=S)SC1=Cc1ccc2c(c1)N(CCCCc1ccccc1)C(=O)CO2", "note": "[Example 174, 6-(4-Oxo-2-thioxo-thiazolidin-5-ylidenemethyl)-4-(4-phenyl-butyl)-4H-1,4-benzoxazin-3-one]", "IC50": 2}, {"smiles": "O=C1NC(=S)SC1=Cc1ccc2c(c1)N(CCCCCc1ccccc1)C(=O)CO2", "note": "[Example 175, 6-(4-Oxo-2-thioxo-thiazolidin-5-ylidenemethyl)-4-(5-phenyl-pentyl)-4H-1,4-benzoxazin-3-one]", "IC50": 4}, {"smiles": "NC(=O)c1ccc(CN2C(=O)COc3ccc(C=C4SC(=S)NC4=O)cc32)cc1", "note": "[Example 176, 4-[3-Oxo-6-(4-oxo-2-thioxo-thiazolidin-5-ylidenemethyl)-2,3-dihydro-1,4-benzoxazin-4-ylmethyl]-benzamide]", "IC50": 59}, {"smiles": "CC(=O)Nc1ccc(CN2C(=O)COc3ccc(C=C4SC(=S)NC4=O)cc32)cc1", "note": "[Example 177, N-{4-[3-Oxo-6-(4-oxo-2-thioxo-thiazolidin-5-ylidenemethyl)-2,3-dihydro-1,4-benzoxazin-4-ylmethyl]-phenyl}-acetamide]", "IC50": 25}, {"smiles": "O=C1NC(=S)SC1=Cc1ccc2c(c1)N(Cc1ccc(Cl)c(Cl)c1)C(=O)CO2", "note": "[Example 178, 4-(3,4-Dichloro-benzyl)-6-(4-oxo-2-thioxo-thiazolidin-5-ylidenemethyl)-4H-1,4-benzoxazin-3-one]", "IC50": 4}]}]}
